This is an account of results in ChEMBL document CHEMBL2384904, “Discovery of potent, selective, bioavailable phosphodiesterase 2 (PDE2) inhibitors active in an osteoarthritis pain model, part I: transformation of selective pyrazolodiazepinone phosphodiesterase 4 (PDE4) inhibitors into selective PDE2 inhibitors” (Bioorg Med Chem Lett, 2013).

In series [1] the target is cGMP-dependent 3',5'-cyclic phosphodiesterase (Homo sapiens, UniProt O00408). Put plainly: Inhibition of PDE2 (unknown origin).
Series [2] in a line: Half life in iv dosed rat. Type of series: ADME, organism-based. The settings on record: in vivo.
The nature of series [3]: Bioavailability in rat. Type of series: ADME, organism-based. Particulars: in vivo.
The target of series [4] is Phosphodiesterase 3 (Homo sapiens) (UniProt Q14432+Q13370). Put plainly: Inhibition of PDE3 (unknown origin). Type of series: protein assay.
The target in series [5] is Phosphodiesterase 7 (Homo sapiens) (UniProt Q13946+Q9NP56). Description: Inhibition of PDE7 (unknown origin). Type of series: protein assay.
A further series has as its target Phosphodiesterase 4 (Homo sapiens, UniProt P27815+Q08499+Q07343+Q08493). Put plainly: Inhibition of PDE4 (unknown origin). Type of series: protein assay.
Series [6] has as its target Phosphodiesterase 1 (Homo sapiens) (UniProt P54750+Q01064+Q14123). Put plainly: Inhibition of PDE1 (unknown origin). Type of series: protein assay.
The species entered for series [7] is Homo sapiens. Description: Selectivity ratio of IC50 for PDE4 (unknown origin) to IC50 for PDE2 (unknown origin).
Series [8] addresses Phosphodiesterase 8 (Homo sapiens) (UniProt O95263+O60658). Put plainly: Inhibition of PDE8 (unknown origin). Type of series: protein assay.
Series [9] has as its target High affinity cGMP-specific 3',5'-cyclic phosphodiesterase 9A (Homo sapiens) (UniProt O76083). Put plainly: Inhibition of PDE9 (unknown origin).
Series [10] is described as follows: Half life in po dosed rat. Type of series: ADME, organism-based. The settings on record: in vivo.
Series [11] concerns the target Dual 3',5'-cyclic-AMP and -GMP phosphodiesterase 11A (Homo sapiens) (UniProt Q9HCR9). Description: Inhibition of PDE11 (unknown origin).
The target of series [12] is Phosphodiesterase 6 (Homo sapiens) (UniProt Q13956+P18545+P35913+O43924+P16499+P51160). Description: Inhibition of PDE6 (unknown origin). Type of series: protein assay.
Series [13] concerns the target cAMP and cAMP-inhibited cGMP 3',5'-cyclic phosphodiesterase 10A (Homo sapiens) (UniProt Q9Y233). Put plainly: Inhibition of PDE10 (unknown origin).
In series [14] the target is cGMP-specific 3',5'-cyclic phosphodiesterase (Homo sapiens) (UniProt O76074). Description: Inhibition of PDE5 (unknown origin).
For series [15], the species on record is Homo sapiens. Description: Selectivity ratio of IC50 for PDE4B (unknown origin) to IC50 for PDE2 (unknown origin).
The nature of the next series: in vitro. The settings on record: human, liver microsomes.
The target in series [16] is 3',5'-cyclic-AMP phosphodiesterase 4B (Homo sapiens, UniProt Q07343). Put plainly: Inhibition of PDE4B (unknown origin).
3',5'-cyclic-AMP phosphodiesterase 4B, sequence (Q07343 whole entry): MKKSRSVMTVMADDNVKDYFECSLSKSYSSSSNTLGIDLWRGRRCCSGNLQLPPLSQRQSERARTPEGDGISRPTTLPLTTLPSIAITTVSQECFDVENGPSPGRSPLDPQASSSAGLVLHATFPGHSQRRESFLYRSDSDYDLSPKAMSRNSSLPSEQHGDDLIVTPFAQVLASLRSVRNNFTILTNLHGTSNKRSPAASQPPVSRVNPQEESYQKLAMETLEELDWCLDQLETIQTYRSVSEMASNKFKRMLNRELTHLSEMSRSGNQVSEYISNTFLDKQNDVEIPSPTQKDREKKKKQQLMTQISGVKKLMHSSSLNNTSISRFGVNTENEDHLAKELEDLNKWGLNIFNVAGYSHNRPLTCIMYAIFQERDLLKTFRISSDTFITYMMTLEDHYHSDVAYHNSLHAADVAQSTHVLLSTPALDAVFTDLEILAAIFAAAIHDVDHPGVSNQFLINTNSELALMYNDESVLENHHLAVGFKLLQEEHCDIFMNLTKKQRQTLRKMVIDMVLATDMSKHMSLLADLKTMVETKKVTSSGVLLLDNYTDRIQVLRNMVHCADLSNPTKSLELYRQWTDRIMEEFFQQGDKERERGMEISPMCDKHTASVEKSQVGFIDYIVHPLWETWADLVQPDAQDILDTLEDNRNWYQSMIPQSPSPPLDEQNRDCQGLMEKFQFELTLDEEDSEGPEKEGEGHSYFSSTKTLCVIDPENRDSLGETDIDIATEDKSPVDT

cGMP-dependent 3',5'-cyclic phosphodiesterase, sequence (O00408 whole entry): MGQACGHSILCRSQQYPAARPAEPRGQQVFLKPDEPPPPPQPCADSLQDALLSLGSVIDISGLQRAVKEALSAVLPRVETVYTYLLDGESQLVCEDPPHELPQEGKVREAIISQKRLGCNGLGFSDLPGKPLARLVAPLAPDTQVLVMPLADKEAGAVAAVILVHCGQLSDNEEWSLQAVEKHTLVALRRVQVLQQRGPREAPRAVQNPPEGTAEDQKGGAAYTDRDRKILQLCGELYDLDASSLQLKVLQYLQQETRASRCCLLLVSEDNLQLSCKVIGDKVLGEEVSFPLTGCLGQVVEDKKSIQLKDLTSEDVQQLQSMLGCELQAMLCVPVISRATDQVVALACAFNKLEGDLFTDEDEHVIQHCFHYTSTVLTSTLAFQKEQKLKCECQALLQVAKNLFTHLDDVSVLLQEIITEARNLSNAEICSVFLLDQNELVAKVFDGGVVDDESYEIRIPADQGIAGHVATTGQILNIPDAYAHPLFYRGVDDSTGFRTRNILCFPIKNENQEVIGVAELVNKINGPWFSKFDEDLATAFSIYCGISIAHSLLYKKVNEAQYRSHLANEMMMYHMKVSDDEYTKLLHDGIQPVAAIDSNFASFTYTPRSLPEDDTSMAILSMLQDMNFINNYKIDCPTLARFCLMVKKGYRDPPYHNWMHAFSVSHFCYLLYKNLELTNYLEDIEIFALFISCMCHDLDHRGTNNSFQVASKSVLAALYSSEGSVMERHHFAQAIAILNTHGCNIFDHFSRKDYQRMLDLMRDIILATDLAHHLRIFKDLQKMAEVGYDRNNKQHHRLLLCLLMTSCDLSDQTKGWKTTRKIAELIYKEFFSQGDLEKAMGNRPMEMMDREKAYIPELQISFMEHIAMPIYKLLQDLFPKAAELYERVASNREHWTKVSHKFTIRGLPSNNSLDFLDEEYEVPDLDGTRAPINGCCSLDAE
High affinity cGMP-specific 3',5'-cyclic phosphodiesterase 9A (Homo sapiens), sequence (O76083 whole entry): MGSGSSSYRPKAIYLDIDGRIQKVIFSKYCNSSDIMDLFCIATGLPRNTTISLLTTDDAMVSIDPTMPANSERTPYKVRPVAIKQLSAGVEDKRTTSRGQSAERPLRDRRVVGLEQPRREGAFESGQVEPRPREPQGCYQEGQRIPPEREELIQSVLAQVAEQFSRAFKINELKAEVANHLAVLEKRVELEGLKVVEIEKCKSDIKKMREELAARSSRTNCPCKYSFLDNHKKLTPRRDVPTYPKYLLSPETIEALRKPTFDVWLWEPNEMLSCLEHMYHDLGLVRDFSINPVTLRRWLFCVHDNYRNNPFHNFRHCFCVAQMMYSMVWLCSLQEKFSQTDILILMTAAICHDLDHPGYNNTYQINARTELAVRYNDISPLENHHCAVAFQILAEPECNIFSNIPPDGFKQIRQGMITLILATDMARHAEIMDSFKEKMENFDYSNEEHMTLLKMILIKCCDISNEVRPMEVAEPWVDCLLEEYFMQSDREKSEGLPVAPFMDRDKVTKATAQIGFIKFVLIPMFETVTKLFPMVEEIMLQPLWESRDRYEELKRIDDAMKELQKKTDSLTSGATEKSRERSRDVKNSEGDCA
cAMP and cAMP-inhibited cGMP 3',5'-cyclic phosphodiesterase 10A (Homo sapiens), sequence (Q9Y233 whole entry): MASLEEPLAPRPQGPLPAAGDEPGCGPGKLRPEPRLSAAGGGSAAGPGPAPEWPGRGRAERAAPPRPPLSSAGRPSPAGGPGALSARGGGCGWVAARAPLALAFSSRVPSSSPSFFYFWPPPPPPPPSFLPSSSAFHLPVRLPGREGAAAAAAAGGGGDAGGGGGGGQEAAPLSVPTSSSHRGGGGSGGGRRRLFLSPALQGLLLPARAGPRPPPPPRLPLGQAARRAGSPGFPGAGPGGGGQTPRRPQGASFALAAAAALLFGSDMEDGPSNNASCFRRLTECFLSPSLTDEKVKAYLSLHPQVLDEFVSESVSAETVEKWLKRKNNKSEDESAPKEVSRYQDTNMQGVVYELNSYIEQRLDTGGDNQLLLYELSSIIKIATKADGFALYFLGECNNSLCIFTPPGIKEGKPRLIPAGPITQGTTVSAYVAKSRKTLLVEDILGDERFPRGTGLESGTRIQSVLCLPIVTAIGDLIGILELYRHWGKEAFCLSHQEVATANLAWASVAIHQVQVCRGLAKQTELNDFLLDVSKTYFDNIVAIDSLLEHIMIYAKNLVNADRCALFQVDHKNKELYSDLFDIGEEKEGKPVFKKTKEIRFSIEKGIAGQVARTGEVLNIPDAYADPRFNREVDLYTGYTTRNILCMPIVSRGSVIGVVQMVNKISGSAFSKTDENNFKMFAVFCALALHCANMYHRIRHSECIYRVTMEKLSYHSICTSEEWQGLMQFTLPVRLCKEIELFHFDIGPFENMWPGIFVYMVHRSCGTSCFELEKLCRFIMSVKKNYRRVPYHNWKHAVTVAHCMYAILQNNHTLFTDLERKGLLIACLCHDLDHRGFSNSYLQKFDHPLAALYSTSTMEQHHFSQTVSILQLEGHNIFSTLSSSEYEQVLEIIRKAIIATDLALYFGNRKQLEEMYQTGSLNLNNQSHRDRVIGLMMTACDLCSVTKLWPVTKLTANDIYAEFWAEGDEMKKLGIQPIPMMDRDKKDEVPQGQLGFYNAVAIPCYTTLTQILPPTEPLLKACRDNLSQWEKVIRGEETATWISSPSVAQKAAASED
Phosphodiesterase 7 (Homo sapiens), sequence (Q13946 whole entry, looked up): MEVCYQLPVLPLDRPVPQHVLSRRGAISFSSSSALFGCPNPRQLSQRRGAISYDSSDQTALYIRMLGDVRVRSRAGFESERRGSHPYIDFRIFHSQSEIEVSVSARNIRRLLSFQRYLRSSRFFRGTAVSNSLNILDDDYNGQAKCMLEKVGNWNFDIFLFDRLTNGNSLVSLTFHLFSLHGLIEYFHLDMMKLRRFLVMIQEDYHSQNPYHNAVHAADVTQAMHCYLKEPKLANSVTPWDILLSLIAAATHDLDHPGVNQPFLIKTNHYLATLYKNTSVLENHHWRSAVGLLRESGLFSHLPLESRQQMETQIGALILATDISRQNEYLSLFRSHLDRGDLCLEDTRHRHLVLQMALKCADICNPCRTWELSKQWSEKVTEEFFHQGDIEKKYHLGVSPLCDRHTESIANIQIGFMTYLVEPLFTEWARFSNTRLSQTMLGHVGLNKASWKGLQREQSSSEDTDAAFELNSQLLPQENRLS
Phosphodiesterase 7 (Homo sapiens), sequence (Q9NP56 whole entry, looked up): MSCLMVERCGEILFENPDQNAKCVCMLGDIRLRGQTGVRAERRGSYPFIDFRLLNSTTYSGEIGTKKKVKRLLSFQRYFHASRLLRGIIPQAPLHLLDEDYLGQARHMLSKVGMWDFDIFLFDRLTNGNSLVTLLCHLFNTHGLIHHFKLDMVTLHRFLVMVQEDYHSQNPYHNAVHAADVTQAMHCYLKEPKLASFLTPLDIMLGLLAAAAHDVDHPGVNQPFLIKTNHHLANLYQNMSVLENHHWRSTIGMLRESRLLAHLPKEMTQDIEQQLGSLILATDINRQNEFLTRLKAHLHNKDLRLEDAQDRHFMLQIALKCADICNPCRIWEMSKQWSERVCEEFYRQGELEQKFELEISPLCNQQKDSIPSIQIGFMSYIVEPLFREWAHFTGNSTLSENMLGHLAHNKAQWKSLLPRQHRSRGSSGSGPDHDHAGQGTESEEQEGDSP

Consider `CCCCCC[C@@H]([C@@H](C)O)n1cnc2c(N)ncnc21` (relative stereo) [EHNA], for which, in [1], it took 800 nM to reach half-maximal inhibition (IC50).
As for `CCC(CC)c1nn(CC)c2c1N=C(c1ccc(C(=O)O)cc1)CNC2=O`, the results for the half-life in series [2] and in series [10] were 114 min and 300 min, respectively. Moreover, the bioavailability in series [3] stood at 80%. Moreover, the INH in series [4], in [5], in [6], in series [8], in series [9] and in series [11] was over 5 µM in each case. Moreover, the INH in series [12], in series [13] and in [14] was over 5 µM throughout. Besides, the IC50 worked out at 1.2 nM against Phosphodiesterase 4 and 840 nM in [1]. For the same compound, in the series filed under Homo sapiens [7], the Ratio IC50 is 0.0015.
With `CC(C)c1nccn1-c1ccc(C2=Nc3c(C(C)(C)C)nn(CCO)c3C(=O)NC2)cc1`, the Ratio IC50 in the series listed under Homo sapiens [15] is 3. The same compound came in with a half-life in “in vitro” of 12 min. Besides, the IC50 in series [16] worked out at 330 nM; in [1], 97 nM.
On to `CC(C)(C)c1nn(CCO)c2c1N=C(c1ccc(F)cc1)CNC2=O`, for which the 50% inhibitory concentration (IC50) on Phosphodiesterase 4 is 31 nM; in [1], 259 nM. Besides, the Ratio IC50 in the series filed under Homo sapiens [7] was found to be 0.12.
For `CCC(CC)c1nn(CCCO)c2c1N=C(c1ccc(-n3ccnc3C)cc1)CNC2=O`, the IC50 on Phosphodiesterase 4 came to 10800 nM; in series [1] it was 328 nM. In addition, the half-life in “in vitro” amounted to 6 min. In addition, the Ratio IC50 in the series listed under Homo sapiens [7] is 33.
As for `CCC(CC)c1nn(CCO)c2c1N=C(c1ccc(OC)c(OC)c1)CNC2=O`, the IC50 stood at 48 nM at Phosphodiesterase 4 and 23 nM in [1]. Moreover, the half-life in the series “in vitro” is 23 min. Moreover, in the series listed under Homo sapiens [7], the Ratio IC50 was determined as 2.
The compound `COc1ccc(Cc2nn3c([C@@H](CCc4ccccc4)[C@@H](C)O)nc(C)c3c(=O)[nH]2)cc1OO` registered an IC50 in [1] of 4.7 nM.
Take `CCC(CC)c1nn(CCO)c2c1N=C(c1ccc(-n3ccnc3C)cc1)CNC2=O`: the Ratio IC50 in the series filed under Homo sapiens [15] and in the series filed under Homo sapiens [7] was 11 each time. In addition, the IC50 came out at 538 nM against Phosphodiesterase 4, 583 nM in series [16] and 54 nM in [1]. Moreover, the half-life in “in vitro” was found to be 5 min.
For the compound `CCC(CC)c1nn(CCO)c2c1N=C(c1ccccc1)CNC2=O`, the IC50 against Phosphodiesterase 4 came to 76 nM; in [1], 102 nM. The half-life in “in vitro” came to 20 min. The Ratio IC50 in the series listed under Homo sapiens [7] was 0.7.
On the same counts, the results for `CCC(CC)c1nn(CCCO)c2c1N=C(c1ccc(OC)c(OC)c1)CNC2=O` are 365 nM, 93 nM, 44 min and 4.
Consider `CCC(C)(C)c1nn(CCO)c2c1N=C(c1ccc(-n3ccnc3C)cc1)CNC2=O`, for which the Ratio IC50 in the series listed under Homo sapiens [15] was 8. The compound further had a half-life in “in vitro” of 7 min. For the same compound, the IC50 in series [16] was 378 nM; in [1] it was 45 nM.
Regarding `CCC(C)(C)c1nn(CCO)c2c1N=C(c1ccc(-n3cc(C)nc3C)cc1)CNC2=O`, in the series listed under Homo sapiens [15], the Ratio IC50 stood at 19. For the same compound, the half-life in the series “in vitro” worked out at 9 min. Further, the IC50 in [16] is 1950 nM; in series [1], 105 nM.
`CCC(CC)c1nn(CCCO)c2c1N=C(c1ccccc1)CNC2=O` gave a half-life in “in vitro” of 36 min.
